# Source: the supplement of paper PMC11952222, “Development and comparison of single FLT3-inhibitors to dual FLT3/TAF1-inhibitors as an anti-leukemic approach” (PLOS One, 2025)
# ± gives the standard deviation of the averaged measurements.
# Test system: IGROV1
# Assay: cell viability (CellTiter-Glo luminescence) relative to DMSO (fraction of DMSO control); higher = higher signal (more live cells for CellTiter-Glo)
# Conditions: 0.3 µM; 72 h
# Experimental: (§1)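 MOLM13, DU4475, HDQP1 and IGROV1 cells were treated with compounds in 384-well format for 72 h (KASUMI-1 in 96-well plates, RPMI + 10% FCS, 72 h). Viability was read with CellTiter-Glo and cell death with CellTox Green, both normalised to DMSO vehicle. Doses ranged 0.001-30 µM.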
row,SMILES,cell viability
1,Cn1cc(-c2cc(NC(=O)c3ccc(C(C)(C)C)cc3)n[nH]2)ccc1=O [3i-1248],0.953 ± 0.12

# Same assay, conditions: 1 µM; 72 h
row,SMILES,cell viability
1,CC(C)(C)c1cc(NC(=O)Nc2ccc(-c3cn4c(n3)sc3cc(OCCN5CCOCC5)ccc34)cc2)no1 [quizartinib],0.633 ± 0.12
2,C=CCCn1cc(-c2cc(C(=O)N3CCOCC3)cc3c2ncn3C)c2cc[nH]c2c1=O [GNE-371],0.975 ± 0.052
3,Cc1cc(-c2cc(NC(=O)c3ccc(C(C)(C)C)cc3)[nH]n2)ccn1 [3i-1246],0.864 ± 0.095
4,CC(C)(C)c1ccc(C(=O)Nc2cc(-c3ccccc3)n[nH]2)cc1 [3i-1247],0.739 ± 0.034
5,Cn1cc(-c2cc(NC(=O)c3ccc(C(C)(C)C)cc3)n[nH]2)ccc1=O [3i-1248],0.861 ± 0.067

# Same assay, conditions: 3 µM; 72 h
row,SMILES,cell viability
1,CC(C)(C)c1cc(NC(=O)Nc2ccc(-c3cn4c(n3)sc3cc(OCCN5CCOCC5)ccc34)cc2)no1 [quizartinib],0.468 ± 0.12
2,C=CCCn1cc(-c2cc(C(=O)N3CCOCC3)cc3c2ncn3C)c2cc[nH]c2c1=O [GNE-371],0.95 ± 0.11
3,Cc1cc(-c2cc(NC(=O)c3ccc(C(C)(C)C)cc3)[nH]n2)ccn1 [3i-1246],0.811 ± 0.053
4,CC(C)(C)c1ccc(C(=O)Nc2cc(-c3ccccc3)n[nH]2)cc1 [3i-1247],0.467 ± 0.062
5,Cn1cc(-c2cc(NC(=O)c3ccc(C(C)(C)C)cc3)n[nH]2)ccc1=O [3i-1248],0.783 ± 0.047

# Same assay, conditions: 10 µM; 72 h
row,SMILES,cell viability
1,CC(C)(C)c1cc(NC(=O)Nc2ccc(-c3cn4c(n3)sc3cc(OCCN5CCOCC5)ccc34)cc2)no1 [quizartinib],0.614 ± 0.093
2,C=CCCn1cc(-c2cc(C(=O)N3CCOCC3)cc3c2ncn3C)c2cc[nH]c2c1=O [GNE-371],0.931 ± 0.043
3,Cc1cc(-c2cc(NC(=O)c3ccc(C(C)(C)C)cc3)[nH]n2)ccn1 [3i-1246],0.587 ± 0.085
4,CC(C)(C)c1ccc(C(=O)Nc2cc(-c3ccccc3)n[nH]2)cc1 [3i-1247],0.365 ± 0.019
5,Cn1cc(-c2cc(NC(=O)c3ccc(C(C)(C)C)cc3)n[nH]2)ccc1=O [3i-1248],0.568 ± 0.075

# Same assay, conditions: 30 µM; 72 h
row,SMILES,cell viability
1,CC(C)(C)c1cc(NC(=O)Nc2ccc(-c3cn4c(n3)sc3cc(OCCN5CCOCC5)ccc34)cc2)no1 [quizartinib],0.384 ± 0.069
2,C=CCCn1cc(-c2cc(C(=O)N3CCOCC3)cc3c2ncn3C)c2cc[nH]c2c1=O [GNE-371],0.958 ± 0.054
3,Cc1cc(-c2cc(NC(=O)c3ccc(C(C)(C)C)cc3)[nH]n2)ccn1 [3i-1246],0.19 ± 0.051
4,CC(C)(C)c1ccc(C(=O)Nc2cc(-c3ccccc3)n[nH]2)cc1 [3i-1247],0.243 ± 0.049
5,Cn1cc(-c2cc(NC(=O)c3ccc(C(C)(C)C)cc3)n[nH]2)ccc1=O [3i-1248],0.0746 ± 0.044

# Test system: KASUMI-1
# Assay: as above
# Conditions: 0.000948683 µM; 72 h
# Experimental: as §1
row,SMILES,cell viability
1,Cc1cc(-c2cc(NC(=O)c3ccc(C(C)(C)C)cc3)[nH]n2)ccn1 [3i-1246],1.076 ± 0.0022
2,CC(C)(C)c1ccc(C(=O)Nc2cc(-c3ccccc3)n[nH]2)cc1 [3i-1247],1.26 ± 0.087
3,Cn1cc(-c2cc(NC(=O)c3ccc(C(C)(C)C)cc3)n[nH]2)ccc1=O [3i-1248],1.15 ± 0.053

# Same assay, conditions: 0.003 µM; 72 h
row,SMILES,cell viability
1,Cc1cc(-c2cc(NC(=O)c3ccc(C(C)(C)C)cc3)[nH]n2)ccn1 [3i-1246],1.13 ± 0.067
2,CC(C)(C)c1ccc(C(=O)Nc2cc(-c3ccccc3)n[nH]2)cc1 [3i-1247],1.338 ± 0.0028
3,Cn1cc(-c2cc(NC(=O)c3ccc(C(C)(C)C)cc3)n[nH]2)ccc1=O [3i-1248],1.25 ± 0.078

# Same assay, conditions: 0.00948683 µM; 72 h
row,SMILES,cell viability
1,Cc1cc(-c2cc(NC(=O)c3ccc(C(C)(C)C)cc3)[nH]n2)ccn1 [3i-1246],1.17 ± 0.087
2,CC(C)(C)c1ccc(C(=O)Nc2cc(-c3ccccc3)n[nH]2)cc1 [3i-1247],1.48 ± 0.063
3,Cn1cc(-c2cc(NC(=O)c3ccc(C(C)(C)C)cc3)n[nH]2)ccc1=O [3i-1248],1.36 ± 0.027

# Same assay, conditions: 0.03 µM; 72 h
row,SMILES,cell viability
1,Cc1cc(-c2cc(NC(=O)c3ccc(C(C)(C)C)cc3)[nH]n2)ccn1 [3i-1246],1.22 ± 0.064
2,CC(C)(C)c1ccc(C(=O)Nc2cc(-c3ccccc3)n[nH]2)cc1 [3i-1247],1.411 ± 0.0049
3,Cn1cc(-c2cc(NC(=O)c3ccc(C(C)(C)C)cc3)n[nH]2)ccc1=O [3i-1248],1.503 ± 0.0079

# Same assay, conditions: 0.0948683 µM; 72 h
row,SMILES,cell viability
1,CC(C)(C)c1ccc(C(=O)Nc2cc(-c3ccccc3)n[nH]2)cc1 [3i-1247],1.38 ± 0.063
2,Cn1cc(-c2cc(NC(=O)c3ccc(C(C)(C)C)cc3)n[nH]2)ccc1=O [3i-1248],1.43 ± 0.11

# Same assay, conditions: 0.3 µM; 72 h
row,SMILES,cell viability
1,Cc1cc(-c2cc(NC(=O)c3ccc(C(C)(C)C)cc3)[nH]n2)ccn1 [3i-1246],1.1 ± 0.073
2,CC(C)(C)c1ccc(C(=O)Nc2cc(-c3ccccc3)n[nH]2)cc1 [3i-1247],1.37 ± 0.064
3,Cn1cc(-c2cc(NC(=O)c3ccc(C(C)(C)C)cc3)n[nH]2)ccc1=O [3i-1248],1.41 ± 0.072

# Same assay, conditions: 0.948683 µM; 72 h
row,SMILES,cell viability
1,Cc1cc(-c2cc(NC(=O)c3ccc(C(C)(C)C)cc3)[nH]n2)ccn1 [3i-1246],0.962 ± 0.2
2,CC(C)(C)c1ccc(C(=O)Nc2cc(-c3ccccc3)n[nH]2)cc1 [3i-1247],1.2 ± 0.041
3,Cn1cc(-c2cc(NC(=O)c3ccc(C(C)(C)C)cc3)n[nH]2)ccc1=O [3i-1248],1.37 ± 0.046

# Same assay, conditions: 3 µM; 72 h
row,SMILES,cell viability
1,Cc1cc(-c2cc(NC(=O)c3ccc(C(C)(C)C)cc3)[nH]n2)ccn1 [3i-1246],0.566 ± 0.018
